Test results taken from patent publication US20090234097A1, “VASODILATOR” (CALPIS CO., LTD., priority 2006, published 2009).

Tested on: thoracic aorta ring of a Wistar rat
Assay: Vasodilating test on phenylephrine-preconstricted aorta ring (Magnus apparatus)
Conditions: at 10 mM (printed 10 mm); aorta ring preconstricted with 1 μM phenylephrine
Procedure: The thoracic aorta of a Wistar rat was taken out, cut into 2 mm long, and made into an aorta ring. The ring was set in a Magnus apparatus (product name “micro tissue organ bath MTB-1Z”, manufactured by LABO SUPPORT CO., LTD.), and allowed to equilibrate with a constant tension. The constriction response of the aorta ring was confirmed with 50 mM KCl.
Next, the aorta ring was preliminarily constricted with 1 μM phenylephrine, and VPP and IPP prepared in Synthesis Example were added at ten-fold increasing concentrations from 10^−9 M to observe the vasodilator response through the change in tension of the aorta ring. The dose dependency of the vasodilator response was also studied.
The vasodilating test was conducted in the same way as in Example 1, except that the tripeptides VPP and IPP were replaced with amino acids, valine (Val) and proline (Pro), at the same concentration.

SMILES: CC(C)[C@H](N)C(=O)O [Val, valine]
- vasodilator response (change in tension of the aorta ring): no vasodilator response was observed

SMILES: O=C(O)[C@@H]1CCCN1 [Pro, proline]
- vasodilator response (change in tension of the aorta ring): no vasodilator response was observed
